≈ marks a conversion by molar mass, not a printed value.
Key:
Format in all cases: functional, organism-based
[1] = tested on: Pyrenophora tritici-repentis; assay: Antifungal activity against Pyrenophora tritici-repentis isolate Ptr 92 148-1-1 assessed as inhibition of conidia germination after 6 hr incubation in presence of SHAM; details: Ptr 92 148-1-1, 6 h
[2] = tested on: Pyrenophora tritici-repentis; assay: Antifungal activity against Pyrenophora tritici-repentis isolate Ptr 92 148-1-1 assessed as inhibition of conidia germination after 6 hr incubation; details: Ptr 92 148-1-1, 6 h
[3] = tested on: Pyrenophora tritici-repentis; assay: Antifungal activity against Pyrenophora tritici-repentis isolate Ptr 4b assessed as inhibition of conidia germination after 6 hr incubation in presence of SHAM
[4] = tested on: Pyrenophora tritici-repentis; assay: Antifungal activity against Pyrenophora tritici-repentis isolate Ptr 90 P7d assessed as inhibition of conidia germination after 6 hr incubation
[5] = tested on: Pyrenophora tritici-repentis; assay: Antifungal activity against Pyrenophora tritici-repentis isolate Ptr 90 DL-22 assessed as inhibition of conidia germination after 6 hr incubation; details: Ptr 90 DL-22, 6 h
[6] = tested on: Pyrenophora tritici-repentis; assay: Antifungal activity against Pyrenophora tritici-repentis isolate Ptr 1A assessed as inhibition of conidia germination after 6 hr incubation in presence of SHAM
[7] = tested on: Pyrenophora tritici-repentis; assay: Antifungal activity against Pyrenophora tritici-repentis isolate Ptr 86-4 assessed as inhibition of conidia germination after 6 hr incubation in presence of SHAM; details: Ptr 86-4, 6 h
[8] = tested on: Pyrenophora tritici-repentis; assay: Antifungal activity against Pyrenophora tritici-repentis isolate Ptr 92 145-2-4 assessed as inhibition of conidia germination after 6 hr incubation in presence of SHAM; details: Ptr 92 145-2-4, 6 h
[9] = tested on: Pyrenophora tritici-repentis; assay: Antifungal activity against Pyrenophora tritici-repentis isolate Ptr 92 145-2-4 assessed as inhibition of conidia germination after 6 hr incubation; details: Ptr 92 145-2-4, 6 h
[10] = tested on: Pyrenophora tritici-repentis; assay: Antifungal activity against Pyrenophora tritici-repentis isolate Ptr 92 120-2-2 assessed as inhibition of conidia germination after 6 hr incubation in presence of SHAM; details: Ptr 92 120-2-2, 6 h
[11] = tested on: Pyrenophora tritici-repentis; assay: Antifungal activity against Pyrenophora tritici-repentis isolate Ptr 92 119-2-3 assessed as inhibition of conidia germination after 6 hr incubation in presence of SHAM; details: Ptr 92 119-2-3, 6 h
[12] = tested on: Pyrenophora tritici-repentis; assay: Antifungal activity against Pyrenophora tritici-repentis isolate Ptr 92 115-2-3 assessed as inhibition of conidia germination after 6 hr incubation; details: Ptr 92 115-2-3, 6 h
[13] = tested on: Pyrenophora tritici-repentis; assay: Antifungal activity against Pyrenophora tritici-repentis isolate Ptr 90 DL-22 assessed as inhibition of conidia germination after 6 hr incubation in presence of SHAM; details: Ptr 90 DL-22, 6 h
[14] = tested on: Pyrenophora tritici-repentis; assay: Antifungal activity against Pyrenophora tritici-repentis isolate Ptr 4b assessed as inhibition of conidia germination after 6 hr incubation
[15] = tested on: Pyrenophora tritici-repentis; assay: Antifungal activity against Pyrenophora tritici-repentis isolate Ptr 92 119-2-3 assessed as inhibition of conidia germination after 6 hr incubation; details: Ptr 92 119-2-3, 6 h
[16] = tested on: Pyrenophora tritici-repentis; assay: Antifungal activity against Pyrenophora tritici-repentis isolate Ptr 86-4 assessed as inhibition of conidia germination after 6 hr incubation; details: Ptr 86-4, 6 h
[17] = tested on: Pyrenophora tritici-repentis; assay: Antifungal activity against Pyrenophora tritici-repentis isolate Ptr 92 115-2-3 assessed as inhibition of conidia germination after 6 hr incubation in presence of SHAM; details: Ptr 92 115-2-3, 6 h
[18] = tested on: Pyrenophora tritici-repentis; assay: Antifungal activity against Pyrenophora tritici-repentis isolate Ptr 1A assessed as inhibition of conidia germination after 6 hr incubation
[19] = tested on: Pyrenophora tritici-repentis; assay: Antifungal activity against Pyrenophora tritici-repentis isolate Ptr 90 P7d assessed as inhibition of conidia germination after 6 hr incubation in presence of SHAM
[20] = tested on: Pyrenophora tritici-repentis; assay: Antifungal activity against Pyrenophora tritici-repentis isolate Ptr 92 120-2-2 assessed as inhibition of conidia germination after 6 hr incubation; details: Ptr 92 120-2-2, 6 h

## COC(=O)N(OC)c1ccccc1COc1ccn(-c2ccc(Cl)cc2)n1 [PYRACLOSTROBIN]
[1]
  EC50: 2.3 ng/mL
[2]
  EC50: 5.1 ng/mL (≈ 0.0132 µM)
[3]
  EC50: 1.6 ng/mL
[4]
  EC50: 3.3 ng/mL (≈ 0.00851 µM)
[5]
  EC50: 11.8 ng/mL (≈ 0.0304 µM)
[6]
  EC50: 2.2 ng/mL
[7]
  EC50: 1.6 ng/mL
[8]
  EC50: 1.5 ng/mL
[9]
  EC50: 3.8 ng/mL (≈ 0.0098 µM)
[10]
  EC50: 2.1 ng/mL
[11]
  EC50: 2 ng/mL
[12]
  EC50: 12.4 ng/mL (≈ 0.032 µM)
[13]
  EC50: 1.6 ng/mL
[14]
  EC50: 3.8 ng/mL (≈ 0.0098 µM)
[15]
  EC50: 3.8 ng/mL (≈ 0.0098 µM)
[16]
  EC50: 3.4 ng/mL (≈ 0.00877 µM)
[17]
  EC50: 2.3 ng/mL
[18]
  EC50: 9.9 ng/mL (≈ 0.0255 µM)
[19]
  EC50: 1.6 ng/mL
[20]
  EC50: 8.1 ng/mL (≈ 0.0209 µM)
